Results on 36 compounds are retold here after ChEMBL document CHEMBL1201862, “PubChem BioAssay data set” (2004).

Values joined by “and” are separate entries in the source; they are usually repeats but may differ in a detail not shown here. Identical values can stand only once.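 Grown in 96-well plates, cells were treated for 48 hours with each compound at five concentrations. Insufficient inhibition: endpoint recorded as highest concentration tested. GI50 is the concentration that inhibits growth by half.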 Active and inactive are the calls of the source. Rule as the data show it: active = GI50 up to about 1.1 µM and inactive = higher.

The assay concerns Hs-578T. Description: inhibition of tumour cell growth, NCI panel, 48 h.

Consider `Oc1ccccc1C(c1cc2c(cc1O)OCO2)N1CCOCC1` (stereo unspecified), for which the GI50 was 19.5 µM (inactive).

For the compound `CCOC(=O)Nc1sc2c(c1C#N)CCCC2`, the GI50 is 78.7 µM (inactive).

With `COc1cccc2cc(C(C)=O)c(=O)oc12`, the GI50 was > 100 µM (inactive).

Consider `O=C1NC2c3c(I)sc(I)c3C(=O)C2O1` (stereo unspecified), for which the GI50 was 13.5 µM (inactive).

Consider `O=C(O)C12C3CCC(O3)C1(C(=O)O)C1CCC2O1` (stereo unspecified), for which the GI50 was > 100 µM (inactive) and 98.2 µM (inactive).

`Cc1ccc2c(c1)S(=O)(=O)c1ccc3ccccc3c1N2`: the GI50 was > 100 µM (inactive).

Consider `C1=CC2=CC=CC3c4nc5ccc6ccccc6c5nc4C(=C1)C23` (stereo unspecified), for which the GI50 was > 100 µM (inactive).

For the compound `COc1cc2c(c(O)c1OC)C(=O)[C@@H]1CCC(=O)N1C2`, the GI50 was > 100 µM (inactive).

As to `O=C1COc2ccc([N+](=O)[O-])cc2C(=O)C1`, the GI50 was > 10 µM (inactive).

Consider `COc1ccc(OC)c(C2Cc3cnc4nc(N)nc(N)c4c3C2)c1` (stereo unspecified), for which the GI50 was 30.6 µM (inactive).

Consider `COC1/C=C/C(C)C(OC)CC(O)/C=C/C(C)C(C(C)C(OC)C(C)CCC(=O)C(C)C(C/C=C/N(C)C=O)OC)OC(=O)/C=C/C=C(\C)CC(OC)CC2=CC(=O)O[C@@H](C(C)C(OC)C1)[C@H]2O` (stereo partly specified), for which the GI50 was 0.0809 µM (active).

Regarding `O=C(O)C1C(C(=O)O)C23CC2(C(=O)O)C2(C(=O)O)CCC3=C3CCCC312` (stereo unspecified), the GI50 is 2.67 µM (inactive).

For the compound `CCOC(=O)/C(C(N)=O)=C(/O)c1cnccn1`, the GI50 was > 100 µM (inactive).

On to `COC(=O)c1c(O)ccc2c1c1c(n2CCc2ccc(OC)c(OC)c2)C(=O)c2ccccc2C1=O`, for which the GI50 was 10.9 µM (inactive).

Take `N#CC(=C1CCN(CCCC(=O)c2ccc(F)cc2)CC1)c1ccccc1`: the GI50 is > 100 µM (inactive).

Regarding `O=C1CN(c2ccccc2)C(=O)CN1CCN1CC(=O)N(c2ccccc2)CC1=O`, the GI50 was > 100 µM (inactive).

Regarding `CCOc1ccc(-n2c(=O)n3c(Nc4ccc(Cl)cc4)nc4c(c(=O)n(C)c(=O)n4C)n3c2=O)cc1`, the GI50 was 33 µM (inactive).

`CCOc1ccccc1/N=N/C1C(=O)N(C(=O)CC(=O)Nc2ccccc2OC)N=C1C` (stereo unspecified): the GI50 was 1.78 µM (inactive).

For the compound `[O-][n+]1nc(N2CCOCC2)nc2ccccc21`, the GI50 is > 100 µM (inactive).

With `COc1ccc(NC(=O)CSc2nc(C)nc3c2sc(=S)n3-c2ccccc2)cc1`, the GI50 is 3.75 µM (inactive).

`COC(=O)/C=C\C(C#N)(C#N)/N=C/c1ccc(OC)cc1`: the GI50 was 10 µM (inactive).

`COCOC1C=CCCCC2=CC(C)=C(CC1)O2` (stereo unspecified): the GI50 was > 100 µM (inactive).

On to `COc1cc(O)c2c(c1)OCC1(Cc3cc(OC)c(OC)cc31)C2=O` (stereo unspecified), for which the GI50 was 42.5 µM (inactive).

Consider `O=c1[nH]nc(Nc2ccc(Cl)cc2)c2nnn(C3CCCCC3)c12`, for which the GI50 was 34.5 µM (inactive).

Regarding `CC1(C)CO[P@@](=S)(c2ccccn2)O[C@@H]1c1ccccc1`, the GI50 is > 100 µM (inactive).

As for `O=C(CC(=O)N(C(=O)c1ccccc1)c1ccc(Cl)cc1)N/N=C\c1ccccc1O`, the GI50 was 26 µM (inactive).

For the compound `COc1cc(CCCOC(=O)/C=C/c2ccc(O)c(O)c2)cc(O)c1O`, the GI50 was 35.6 µM (inactive).

`Fc1cccc(Cl)c1C1SCc2nc3cc4ccccc4cc3n21` (stereo unspecified): the GI50 was 28.7 µM (inactive).

As to `CC(=O)c1ccc(/N=N/c2ccc3nonc3c2N)cc1`, the GI50 was > 100 µM (inactive).

As to `COc1cccc(C2c3cc4c(cc3OC(N3CCCCC3)C2C)OCO4)c1OC` (stereo unspecified), the GI50 is 4.31 µM (inactive).

In the case of `COC(=O)C1=COC(C)C2C[n+]3ccc4c([nH]c5ccccc54)c3CC12` (stereo unspecified), the GI50 was > 100 µM (inactive).

Consider `NC(=O)CC(N)C(N)=O` (stereo unspecified), for which the GI50 was > 100 µM (inactive).

As for `OCCN1CN(c2nc(N3CN(CCO)C3)nc(N3CN(CCO)C3)n2)C1`, the GI50 was 35.2 µM (inactive).

Consider `COc1cc2c(cc1OC)C(CCN)=NCC2`, for which the GI50 was 27.7 µM (inactive).

Turning to `COc1cc(/C=C/C(=O)N[C@@H]2C(=O)N3[C@@H]2SC(C)(C)[C@@H]3C(=O)O)ccc1O`, the GI50 was > 100 µM (inactive).

Take `C=C1C(=O)C23CC1CCC2C12CO[C@H](O)[C@H]1C(C)(C)[C@H](OC(C)=O)C[C@H]2OC3=O` (stereo partly specified): the GI50 is 34.4 µM (inactive).
